Reference: patent US7662767B2, “Polynucleotide intercalator interceptors and inhibitors” (Materials Evolution and Development USA, Inc., priority 2000, dated 2010)
“And” between values parts separate entries of the source, which are not always exact repeats. Equal entries are not always repeated.

Experiments:
[1] = Absorbance binding spectra of doxorubicin titrated with caffeine or chlorophyllin; conditions: 10 μM doxorubicin
herring sperm dsDNA = experiment: Acridine orange with dsDNA, spectrofluorometry λem 530 nm; format: binding; conditions: AO-DNA, AO [2 μM], DNA [>20 μM], hydrochloride
Experimental: In another implementation, a spectrofluorometric analysis of the interaction of AO with dsDNA at λex 485 nm and λem 530 nm and 635 nm was also conducted. The interaction of DNA with lower concentrations of AO [2 μM] mimicked the results found at the higher AO concentration of 20 μM for bp:AO ratios of 4:1 and above. The association curve for AO over a series of steadily increasing DNA concentrations ranging from […] of DNA is shown in FIG. 3-8.
The example shown in FIG. 3-8 illustrating the effect of NaCl on the fluorescence of 2 μM AO was determined over a range of bp:AO ratios from 4 to 62.5. The excitation wavelength was 485 nm while emission was monitored at 530 nm. The association constant for 2 μM AO with DNA was determined to be 31,990±310 M^−1 (R^2=0.98) in the absence of NaCl and 31,690±498 M^−1 (R^2=0.96) in the presence of NaCl. Error bars are shown to denote confidence intervals at 95% unless hidden by a data point symbol. The delta fluorescence values were obtained by subtracting the background fluorescence of HEPES buffered AO at 2 μM in the absence of DNA. The association constant for the interaction of AO with DNA was determined to be 31,990±3,190 M^−1.

[2] = system: Drosophila salivary gland polytene chromosome; experiment: Removal of DNA binding stains from polytene chromosome bands by xanthine wash; set-up: species or system Drosophila melagaster; conditions: for Degree of Stain Removal, Exposure to AM (100 mM) / Degree of Stain Removal, Exposure to CAF (100 mM): 15 minute wash, static, hydrochloride
Experimental: In another implementation, giant polytene chromosomes were prepared by the squash technique from the salivary gland of Drosophila melagaster larva The salivary gland was placed on a microscope slide, squashed with a glass cover slide, fixed with acidic acid, rinsed with distilled water, and allowed to dry (kindly provided by Linda Chadwell, UTHSCSA-IBT). Three known DNA intercalators, ethidium bromide (98% purity, Aldrich Chemical Company, Milwaukee, Wis.), doxorubicin (98%, Sigma Chemnical Company, St. Louis, Mo.), and acridine orange plus the minor groove binding DNA stain Hoechst 33258 (98%, ACROS Chemical Company, NJ) were prepared in distilled water at a concentration of 1 mM (for chemical structures see FIG. 4-1, where acridine orange (3,6-bis [dimethylamino] acridine) is shown in Panel A, ethidium bromide is shown in Panel B, doxorubicin is shown in Panel C, Hoechst 33258 is shown in Panel D). The slides with prepared chromosomes were immersed in these stains for a period of 30 minutes, rinsed with distilled water, and dried at room temperature. Fluorescence microscopic analysis was conducted at λex 360 nm and photomicrographs were conducted on a Zeiss Model 63 Microscope with a xenon source fluorescent emitter. Photomicrographs were taken using Kodak Gold 35 mm ASA 1600 speed film noting the position of one individual chromosome on the slide. The stained slides were then subjected to 100 mM caffeine or 100 mM aminophylline under static conditions for a period of 15 minutes, rinsed with distilled water, then allowed to dry at room temperature. The presence of the same individual unstained chromosome in the field was confirmed by phase contrast microscopy. The chromosome was viewed again under fluorescence microscopy at […], and color recorded. Slides were re-stained by immersion in the 1 mM stain for a period of 30 minutes, rinsed with distilled water, and dried at room temperature, and the same individual chromosome was examined by fluorescence microscopy and the fluorescence color recorded.
FIG. 4-3 depicts three photomicrographs of the same Drosophila polytene chromosome: after staining with the DNA minor groove binder Hoechst 33258 dye (Panel A), after rinsing with CAF for 15 minutes (Panel B), and a phase contrast verification of the presence of the chromosome after the CAF rinse (Panel C). Table 4-4 summarizes the results from the experiments using caffeine (CAF) and aminophylline (AM) to remove the following DNA intercalators: doxorubicin, ethidium bromide, acridine orange, and the DNA minor groove binder Hoechst 33258 from their binding sites within polytene chromosomes. […] With all DNA intercalators, the staining of chromosome bands was intense before the xanthine rinses and was again intense following re-staining.

Re-staining following Xanthine Exposure ([2]; 1 mM stain, 30 minutes)	Staining before Xanthine Exposure ([2]; 1 mM stain, 30 minutes)	Degree of Stain Removal, Exposure to AM (100 mM) [2]	Degree of Stain Removal, Exposure to CAF (100 mM) [2]	Degree of Stain Removal, Exposure to AM (100 mM) ([2]; listed as Acridine Orange)	Degree of Stain Removal, Exposure to CAF (100 mM) ([2]; listed as Acridine Orange)	Structure (SMILES)	binding to doxorubicin [1]	K ± S.D. (herring sperm dsDNA; Fluorescence plus NaCl)	K ± S.D. (herring sperm dsDNA; Fluorescence plus NaCl, listed as AO-DNA)	K ± S.D. (herring sperm dsDNA; Fluorescence, absence of NaCl)	K ± S.D. (herring sperm dsDNA; Fluorescence, absence of NaCl, listed as AO-DNA)
						Cn1c(=O)c2c(ncn2C)n(C)c1=O [1,3,7-trimethyl xanthine (caffeine), 1,3,7-trimethyl xanthine]	binds with doxorubicin				
Complete	Banding	completely removed	did not completely remove the stain	Complete	Almost	CN(C)c1ccc2cc3ccc(N(C)C)cc3nc2c1.Cl [AO, 3,6-bis[dimethylamino]acridine hydrochloride]		31,690±498 M^−1 and 31,690±4,980 M^−1	31,690 ± 4,890 M^−1	31,990±310 M^−1 and 31,990±3,190 M^−1	31,990 ± 3,190 M^−1
